# System: dermal equivalent consisting of a collagen matrix seeded with normal human fibroblasts
# Experiment: Dermodecontracting effect: spontaneous contraction of dermal equivalent
# Format: cell-based
# Conditions: surface area after 24 h of contraction; control = 100; manganese gluconate 0.0005%, adenosine 0.004%
# Excerpt: These conditions are intended to mimic in vitro, the dermal contractile phenomena that occur during dermal tensing of the face, for example during facial expressions. Under these conditions, in fact, the cells spontaneously express tensile forces that induce retraction of the collagen gel. […] The measurement of this surface area makes it possible to evalue the relaxing or dermocontracting effects of the substances previously brought into contact with the dermal equivalent. […] The experiment is repeated three times. The dermal equivalents are prepared as described in Asselineau et al., Exp. Cell. Res., 1985, 159, 536-539; Models in dermatology, 1987, vol 3 pp 1-7, in the following proportions: The collagen used is collagen type I (commercial solution), but collagen type III or IV can also be used. It is extracted from rat tails or from calf skin by acid hydrolysis and conserved in an acidic medium at […]; it polymerizes naturally by heating to 37° C. and by decreasing the degree of acidity. The collagen is dialysed beforehand against successive baths of water +acetic acid. […] For this, a digital image is acquired for each treated or nontreated dermal equivalent by means of a camera (CCD camera—Iris Sony DXC—107P) and the surface area is then calculated on each image by means of an image analysis system (Zeiss Axiovision 3.0). […]
row,Molecule,% contraction [%]
1,manganese gluconate,89
2,"Nc1ncnc2c1ncn2[C@@H]1O[C@H](CO)[C@@H](O)[C@H]1O [Adenosine, adenosine]",82

# Source: patent US20070202203A1, “ANTI-AGEING COMPOSITION” (L'OREAL, priority 2006, published 2007)
